In ChEMBL document CHEMBL1201862, “PubChem BioAssay data set” (2004):
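Tested at 5 concentrations; 48 h exposure; 96-well plates; endpoints linearly interpolated, else capped at highest concentration. GI50: concentration for 50% inhibition of growth.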 Activity calls are given as the source filed them. Cut-off read from the data, not from the text of the source: active = GI50 up to about 1.1 µM and inactive = higher.

Tests used:
Test in all cases: DTP human tumour cell line panel, 48 h
SK-OV-3 = system: SK-OV-3
TK-10 = system: TK-10
SK-MEL-2 = system: SK-MEL-2
OVCAR-4 = system: OVCAR-4
KM12 = system: KM12
HCT-15 = system: HCT-15
HOP-62 = system: HOP-62
A549 = system: A549
SK-MEL-5 = system: SK-MEL-5
MOLT-4 = system: MOLT-4
NCI-H23 = system: NCI-H23
UO-31 = system: UO-31
SW-620 = system: SW-620
HCT-116 = system: HCT-116
SF-539 = system: SF-539
M14 = system: M14
K562 = system: K562
SNB-19 = system: SNB-19
IGROV-1 = system: IGROV-1
COLO 205 = system: COLO 205

Measured: GI50

CSc1ccccc1P(c1ccccc1SC)c1ccccc1SC
> 100 µM: HCT-15
inactive: SK-OV-3 > 100 µM | TK-10 > 100 µM | SK-MEL-2 > 100 µM | OVCAR-4 > 100 µM | KM12 > 100 µM | HOP-62 25.4 µM | A549 > 100 µM | SK-MEL-5 > 100 µM | MOLT-4 > 100 µM | NCI-H23 > 100 µM | UO-31 > 100 µM | SW-620 > 100 µM | HCT-116 > 100 µM | SF-539 > 100 µM | M14 > 100 µM | K562 > 100 µM | SNB-19 > 100 µM

O=S1(=O)C[C@H](NCc2ccccc2)[C@H](NCc2ccccc2)C1
inactive: SK-OV-3 > 100 µM | TK-10 > 100 µM | SK-MEL-2 > 100 µM | OVCAR-4 > 100 µM | KM12 > 100 µM | HOP-62 > 100 µM | A549 > 100 µM | SK-MEL-5 > 100 µM | MOLT-4 23.8 µM | IGROV-1 > 100 µM | NCI-H23 > 100 µM | UO-31 > 100 µM | SW-620 > 100 µM | HCT-116 > 100 µM | SF-539 > 100 µM | M14 > 100 µM | K562 54.5 µM | COLO 205 > 100 µM | SNB-19 > 100 µM

COC(=O)C1=C(O)C(C(=O)OC)[C@@]2(O)[C@@H](C(=O)OC)[C@H](C)C[C@@H]1[C@@H]2C(=O)OC (stereo partly drawn)
inactive: SK-OV-3 26 µM | TK-10 57.9 µM | SK-MEL-2 21.4 µM | KM12 23.5 µM | HOP-62 31.8 µM | MOLT-4 28.3 µM | NCI-H23 37.5 µM | UO-31 21.5 µM | HCT-116 35.5 µM | SF-539 18.4 µM | M14 20.6 µM | K562 23.2 µM | SNB-19 34.2 µM
25.9 µM: HCT-15

COc1ccc(N2C(=O)C3c4[nH]c5ccc(F)cc5c4C4CCC(C(C)(C)C)CC4C3C2=O)cc1 (stereo not drawn)
> 10 µM: HCT-15
inactive: SK-OV-3 > 10 µM | TK-10 9.38 µM | SK-MEL-2 > 10 µM | OVCAR-4 6.05 µM | KM12 > 10 µM | HOP-62 7.23 µM | A549 7.1 µM | SK-MEL-5 > 10 µM | MOLT-4 > 10 µM | IGROV-1 > 10 µM | NCI-H23 > 10 µM | UO-31 > 10 µM | SW-620 7.26 µM | HCT-116 4.14 µM | SF-539 6.35 µM | M14 7.85 µM | COLO 205 > 10 µM | SNB-19 > 10 µM

Cc1cc(C)c(-n2[nH]c(=O)n(C)c2=O)c(C)c1
> 100 µM: HCT-15
inactive: SK-OV-3 > 100 µM | TK-10 > 100 µM | SK-MEL-2 > 100 µM | OVCAR-4 > 100 µM | KM12 > 100 µM | A549 > 100 µM | SK-MEL-5 > 100 µM | MOLT-4 > 100 µM | IGROV-1 > 100 µM | NCI-H23 > 100 µM | UO-31 > 100 µM | SW-620 > 100 µM | HCT-116 > 100 µM | SF-539 > 100 µM | M14 > 100 µM | K562 > 100 µM | COLO 205 > 100 µM | SNB-19 > 100 µM

CCOC(=O)C(=O)Nc1c(CC)cccc1C(C)CC (stereo not drawn)
inactive: SK-OV-3 > 100 µM | TK-10 > 100 µM | SK-MEL-2 > 100 µM | OVCAR-4 > 100 µM | KM12 > 100 µM | HOP-62 > 100 µM | A549 > 100 µM | SK-MEL-5 > 100 µM | MOLT-4 > 100 µM | IGROV-1 > 100 µM | NCI-H23 > 100 µM | UO-31 > 100 µM | SW-620 > 100 µM | HCT-116 > 100 µM | SF-539 > 100 µM | M14 > 100 µM | K562 > 100 µM | COLO 205 > 100 µM | SNB-19 > 100 µM
> 100 µM: HCT-15

CCOC(=O)c1csc(NC(=O)CN2CCCCC2)n1
inactive: SK-OV-3 > 100 µM | TK-10 > 100 µM | SK-MEL-2 > 100 µM | OVCAR-4 > 100 µM | KM12 > 100 µM | HOP-62 > 100 µM | A549 > 100 µM | SK-MEL-5 > 100 µM | MOLT-4 > 100 µM | IGROV-1 > 100 µM | NCI-H23 > 100 µM | UO-31 > 100 µM | SW-620 > 100 µM | SF-539 > 100 µM | M14 > 100 µM | K562 > 100 µM | COLO 205 > 100 µM | SNB-19 > 100 µM
> 100 µM: HCT-15

O=C1CC2CC3OC3[C@H]3c4cc5c(cc4C(=O)N1C23)OCO5 (stereo partly drawn)
> 100 µM: HCT-15
inactive: SK-OV-3 > 100 µM | TK-10 > 100 µM | SK-MEL-2 > 100 µM | OVCAR-4 > 100 µM | KM12 > 100 µM | HOP-62 > 100 µM | A549 > 100 µM | MOLT-4 > 100 µM | IGROV-1 > 100 µM | UO-31 > 100 µM | SW-620 > 100 µM | HCT-116 > 100 µM | SF-539 > 100 µM | M14 > 100 µM | K562 > 100 µM | COLO 205 > 100 µM | SNB-19 > 100 µM

CC(C)(C)N(Cc1ccoc1)C(=O)/C=C\[S+]([O-])c1ccccc1 (stereo not drawn)
19.2 µM: HCT-15
inactive: SK-OV-3 24 µM | TK-10 44.2 µM | SK-MEL-2 20.9 µM | OVCAR-4 20 µM | KM12 16.6 µM | HOP-62 16.6 µM | A549 24.3 µM | SK-MEL-5 13.4 µM | MOLT-4 22.5 µM | IGROV-1 15 µM | NCI-H23 12.9 µM | UO-31 14.5 µM | SW-620 10.2 µM | HCT-116 16.6 µM | SF-539 21 µM | M14 17.2 µM | K562 26.6 µM | COLO 205 22.3 µM | SNB-19 28.3 µM

NCc1ccccc1-c1c2nc(c(-c3ccccc3CN)c3ccc([nH]3)c(-c3ccccc3CN)c3nc(c(-c4ccccc4CN)c4ccc1[nH]4)C=C3)C=C2
22 µM: HCT-15
inactive: TK-10 27.5 µM | SK-MEL-2 24.7 µM | OVCAR-4 19.4 µM | KM12 20 µM | HOP-62 22.1 µM | A549 22.1 µM | SK-MEL-5 22.9 µM | MOLT-4 > 10 µM | IGROV-1 23.7 µM | NCI-H23 21.8 µM | UO-31 18.5 µM | SW-620 34.1 µM | HCT-116 13.7 µM | M14 21 µM | K562 14.5 µM | COLO 205 29.8 µM | SNB-19 18.6 µM

COc1c(OC)c(OC)c2c(c1OC)c(=O)c1ccccc1n2C [MELICOPICINE]
72.3 µM: HCT-15
inactive: SK-OV-3 > 100 µM | TK-10 > 100 µM | SK-MEL-2 > 100 µM | OVCAR-4 65.6 µM | KM12 12.9 µM | HOP-62 > 100 µM | A549 > 100 µM | SK-MEL-5 > 100 µM | MOLT-4 51.1 µM | IGROV-1 > 100 µM | NCI-H23 > 100 µM | UO-31 > 100 µM | SW-620 > 100 µM | HCT-116 > 100 µM | SF-539 > 100 µM | M14 > 100 µM | K562 > 100 µM | COLO 205 > 100 µM | SNB-19 > 100 µM

CCCCCCCCCCCCCCCCCCN(C)CC(COP(=O)([O-])OCC[N+](C)(C)C)OC (stereo not drawn)
7.67 µM: HCT-15
inactive: SK-OV-3 14.1 µM | TK-10 3.32 µM | SK-MEL-2 38.5 µM | OVCAR-4 8.09 µM | KM12 3.52 µM | HOP-62 9.38 µM | A549 22.8 µM | SK-MEL-5 27.9 µM | MOLT-4 3.94 µM | IGROV-1 3.1 µM | NCI-H23 20.2 µM | UO-31 29.5 µM | SW-620 17.5 µM | HCT-116 15.5 µM | SF-539 16.7 µM | M14 9.84 µM | K562 18.8 µM | COLO 205 2.91 µM | SNB-19 7.29 µM

CCCCOc1ccc2c(c1)CC[C@@H]1[C@@H]2CC[C@]2(C)C(=O)N(CCCC)C(=O)C[C@@H]12
inactive: SK-OV-3 > 100 µM | SK-MEL-2 > 100 µM | KM12 > 100 µM | HOP-62 > 100 µM | SK-MEL-5 26.3 µM | MOLT-4 30.4 µM | IGROV-1 > 100 µM | NCI-H23 > 100 µM | UO-31 > 100 µM | HCT-116 > 100 µM | M14 > 100 µM | K562 6.37 µM | COLO 205 91.8 µM | SNB-19 > 100 µM
> 100 µM: HCT-15

O=C(/C=C1\Nc2ncccc2N=C1CC(=O)c1ccccc1)c1ccccc1
active: HOP-62 0.679 µM
2 µM: HCT-15
inactive: SK-OV-3 12 µM | TK-10 35.6 µM | SK-MEL-2 12.6 µM | OVCAR-4 9.2 µM | KM12 6.43 µM | A549 6.05 µM | SK-MEL-5 4.16 µM | MOLT-4 3.4 µM | IGROV-1 2.72 µM | NCI-H23 23.1 µM | UO-31 5.47 µM | SW-620 5.52 µM | SF-539 13.2 µM | M14 7.35 µM | K562 5.11 µM | COLO 205 4.97 µM | SNB-19 7.69 µM
